According to PubChem BioAssay AID1963848 (Molecular Pharmacology Branch, DTP, NCI, 2024):

Test system: 379773-124-R-J2-PDC spheroid viability
Test: Anticancer human tumor 379773-124-R-J2-PDC patient-derived endometrial carcinoma cell line growth inhibition [POLQ]
Conditions: spheroids with HUVEC and MSC; for IC50: curve of first compound; for viability, T/C: stronger effect = lower value
In short: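 PDC + HUVEC + MSC complex spheroids; POLQ inhibitors ± partner drugs; top conc. at/near clinical Cmax, else 10 microM (SN-38 1 microM), half-log dilutions; 37 degrees C, 5% CO2.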

[1] = second compound 0.0316 µM, first compound 0.0316 µM
[2] = second compound 0.0316 µM, first compound 0.1 µM
[3] = second compound 0.0316 µM, first compound 0.316 µM
[4] = second compound 0.0316 µM, first compound 1 µM
[5] = second compound 0.0316 µM, first compound 3.16 µM
[6] = second compound 0.0316 µM, first compound 10 µM
[7] = second compound 0.1 µM, first compound 0.0316 µM
[8] = second compound 0.1 µM, first compound 0.1 µM
[9] = second compound 0.1 µM, first compound 0.316 µM
[10] = second compound 0.1 µM, first compound 1 µM
[11] = second compound 0.1 µM, first compound 3.16 µM
[12] = second compound 0.1 µM, first compound 10 µM
[13] = second compound 0.316 µM, first compound 0.0316 µM
[14] = second compound 0.316 µM, first compound 0.1 µM
[15] = second compound 0.316 µM, first compound 0.316 µM
[16] = second compound 0.316 µM, first compound 1 µM
[17] = second compound 0.316 µM, first compound 3.16 µM
[18] = second compound 0.316 µM, first compound 10 µM
[19] = second compound 1 µM, first compound 0.0316 µM
[20] = second compound 1 µM, first compound 0.1 µM
[21] = second compound 1 µM, first compound 0.316 µM
[22] = second compound 1 µM, first compound 1 µM
[23] = second compound 1 µM, first compound 3.16 µM
[24] = second compound 1 µM, first compound 10 µM
[25] = second compound 3.16 µM, first compound 0.0316 µM
[26] = second compound 3.16 µM, first compound 0.1 µM
[27] = second compound 3.16 µM, first compound 0.316 µM
[28] = second compound 3.16 µM, first compound 1 µM
[29] = second compound 3.16 µM, first compound 3.16 µM
[30] = second compound 3.16 µM, first compound 10 µM
[31] = second compound 10 µM, first compound 0.0316 µM
[32] = second compound 10 µM, first compound 0.1 µM
[33] = second compound 10 µM, first compound 0.316 µM
[34] = second compound 10 µM, first compound 1 µM
[35] = second compound 10 µM, first compound 3.16 µM
[36] = second compound 10 µM, first compound 10 µM
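Also: spheroids exposed to drugs for seven days before readout.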
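For viability, T/C in this document: percent viability relative to DMSO vehicle control taken as 100%.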

Structure (SMILES): COc1cccc2c1C(=O)c1c(O)c3c(c(O)c1C2=O)CC(O)(C(=O)CO)CC3OC1CC(N)C(O)C(C)O1 (stereo not drawn) + Nc1ccc(C#CCN(C(=O)Cc2ncc(C(F)(F)F)cc2C(F)(F)F)c2ccc(F)cc2)nn1
- IC50 (second compound 0.0316 µM): 78.3 nM
- IC50 (second compound 0.1 µM): 75.9 nM
- IC50 (second compound 0.316 µM): 71.9 nM
- IC50 (second compound 1 µM): 65.5 nM
- IC50 (second compound 3.16 µM): 73.4 nM
- IC50 (second compound 10 µM): 55.4 nM
- viability, T/C [1]: 84.7%
- viability, T/C [2]: 41.7%
- viability, T/C [3]: 11.1%
- viability, T/C [4]: 12.6%
- viability, T/C [5]: 1.86%
- viability, T/C [6]: 0.23%
- viability, T/C [7]: 87.7%
- viability, T/C [8]: 37.4%
- viability, T/C [9]: 15.2%
- viability, T/C [10]: 11.9%
- viability, T/C [11]: 2.13%
- viability, T/C [12]: 0.18%
- viability, T/C [13]: 90.3%
- viability, T/C [14]: 33.3%
- viability, T/C [15]: 11.8%
- viability, T/C [16]: 10.2%
- viability, T/C [17]: 1.88%
- viability, T/C [18]: 0.18%
- viability, T/C [19]: 89.8%
- viability, T/C [20]: 26%
- viability, T/C [21]: 9.42%
- viability, T/C [22]: 10.8%
- viability, T/C [23]: 1.71%
- viability, T/C [24]: 0.23%
- viability, T/C [25]: 85.1%
- viability, T/C [26]: 37.7%
- viability, T/C [27]: 11.3%
- viability, T/C [28]: 10.1%
- viability, T/C [29]: 3.23%
- viability, T/C [30]: 1.06%
- viability, T/C [31]: 71.2%
- viability, T/C [32]: 26.8%
- viability, T/C [33]: 10.9%
- viability, T/C [34]: 9.24%
- viability, T/C [35]: 1.29%
- viability, T/C [36]: 0.25%

Structure (SMILES): COc1cc2cc(C(=O)CCC(=O)O)sc2cc1OC + COC1C(OC(N)=O)C(O)C(Oc2ccc3c(O)c(NC(=O)c4ccc(O)c(CC=C(C)C)c4)c(=O)oc3c2C)OC1(C)C
- IC50 (second compound 0.0316 µM): > 10000 nM
- IC50 (second compound 0.1 µM): > 10000 nM
- IC50 (second compound 0.316 µM): > 10000 nM
- IC50 (second compound 1 µM): > 10000 nM
- IC50 (second compound 3.16 µM): > 10000 nM
- IC50 (second compound 10 µM): > 10000 nM
- viability, T/C [1]: 85.9%
- viability, T/C [2]: 75.8%
- viability, T/C [3]: 92.1%
- viability, T/C [4]: 82.5%
- viability, T/C [5]: 78%
- viability, T/C [6]: 91.4%
- viability, T/C [7]: 88.2%
- viability, T/C [8]: 82%
- viability, T/C [9]: 90.2%
- viability, T/C [10]: 83.3%
- viability, T/C [11]: 85.5%
- viability, T/C [12]: 96.6%
- viability, T/C [13]: 96%
- viability, T/C [14]: 83.6%
- viability, T/C [15]: 76.5%
- viability, T/C [16]: 82.1%
- viability, T/C [17]: 81%
- viability, T/C [18]: 84.6%
- viability, T/C [19]: 82.7%
- viability, T/C [20]: 84.1%
- viability, T/C [21]: 90.9%
- viability, T/C [22]: 89%
- viability, T/C [23]: 90%
- viability, T/C [24]: 78.2%
- viability, T/C [25]: 99.9%
- viability, T/C [26]: 82.5%
- viability, T/C [27]: 78.1%
- viability, T/C [28]: 78.7%
- viability, T/C [29]: 90.2%
- viability, T/C [30]: 85.3%
- viability, T/C [31]: 92.8%
- viability, T/C [32]: 86.1%
- viability, T/C [33]: 86%
- viability, T/C [34]: 69.2%
- viability, T/C [35]: 86.1%
- viability, T/C [36]: 95.4%

Structure (SMILES): O=c1[nH]cc(F)c(=O)[nH]1 + Nc1ccc(C#CCN(C(=O)Cc2ncc(C(F)(F)F)cc2C(F)(F)F)c2ccc(F)cc2)nn1
- IC50 (second compound 0.0316 µM): > 10000 nM
- IC50 (second compound 0.1 µM): > 10000 nM
- IC50 (second compound 0.316 µM): > 10000 nM
- IC50 (second compound 1 µM): > 10000 nM
- IC50 (second compound 3.16 µM): > 10000 nM
- IC50 (second compound 10 µM): > 10000 nM
- viability, T/C [1]: 93.1%
- viability, T/C [2]: 93%
- viability, T/C [3]: 99.6%
- viability, T/C [4]: 85.2%
- viability, T/C [5]: 78.1%
- viability, T/C [6]: 55.7%
- viability, T/C [7]: 89.2%
- viability, T/C [8]: 98.1%
- viability, T/C [9]: 95.1%
- viability, T/C [10]: 80.4%
- viability, T/C [11]: 78.8%
- viability, T/C [12]: 59.6%
- viability, T/C [13]: 96.1%
- viability, T/C [14]: 98.1%
- viability, T/C [15]: 98.2%
- viability, T/C [16]: 94.7%
- viability, T/C [17]: 74.4%
- viability, T/C [18]: 62%
- viability, T/C [19]: 92.3%
- viability, T/C [20]: 85.3%
- viability, T/C [21]: 95.3%
- viability, T/C [22]: 87.2%
- viability, T/C [23]: 75.9%
- viability, T/C [24]: 51.3%
- viability, T/C [25]: 94.1%
- viability, T/C [26]: 83%
- viability, T/C [27]: 91.3%
- viability, T/C [28]: 82.4%
- viability, T/C [29]: 74.1%
- viability, T/C [30]: 57.7%
- viability, T/C [31]: 87.4%
- viability, T/C [32]: 88.2%
- viability, T/C [33]: 93.5%
- viability, T/C [34]: 90.2%
- viability, T/C [35]: 63.1%
- viability, T/C [36]: 57.6%

Structure (SMILES): COc1cc(C2c3cc4c(cc3C(OC3OC5COC(C)OC5C(O)C3O)C3COC(=O)C23)OCO4)cc(OC)c1O (stereo not drawn) + COC1C(OC(N)=O)C(O)C(Oc2ccc3c(O)c(NC(=O)c4ccc(O)c(CC=C(C)C)c4)c(=O)oc3c2C)OC1(C)C
- IC50 (second compound 0.0316 µM): 1190 nM
- IC50 (second compound 0.1 µM): 1510 nM
- IC50 (second compound 0.316 µM): 1490 nM
- IC50 (second compound 1 µM): 1370 nM
- IC50 (second compound 3.16 µM): 1370 nM
- IC50 (second compound 10 µM): 1190 nM
- viability, T/C [1]: 97.5%
- viability, T/C [2]: 82.6%
- viability, T/C [3]: 86.2%
- viability, T/C [4]: 56.9%
- viability, T/C [5]: 13.8%
- viability, T/C [6]: 9.47%
- viability, T/C [7]: 95.5%
- viability, T/C [8]: 80.6%
- viability, T/C [9]: 80%
- viability, T/C [10]: 70.5%
- viability, T/C [11]: 13%
- viability, T/C [12]: 10.2%
- viability, T/C [13]: 95.8%
- viability, T/C [14]: 80.9%
- viability, T/C [15]: 81.3%
- viability, T/C [16]: 70.5%
- viability, T/C [17]: 11.1%
- viability, T/C [18]: 9.75%
- viability, T/C [19]: 93.1%
- viability, T/C [20]: 94.6%
- viability, T/C [21]: 81.6%
- viability, T/C [22]: 64.8%
- viability, T/C [23]: 12.2%
- viability, T/C [24]: 9.19%
- viability, T/C [25]: 76.1%
- viability, T/C [26]: 84.7%
- viability, T/C [27]: 83%
- viability, T/C [28]: 64%
- viability, T/C [29]: 12.9%
- viability, T/C [30]: 8.54%
- viability, T/C [31]: 85.2%
- viability, T/C [32]: 84.4%
- viability, T/C [33]: 89.3%
- viability, T/C [34]: 56.3%
- viability, T/C [35]: 14.1%
- viability, T/C [36]: 9.29%
